In patent US20220074923A1, “METHODS OF IDENTIFYING PARKIN-MEDIATED MITOPHAGY ACTIVATING AGENTS” (THE GOVERNING COUNCIL OF THE UNIVERSITY OF TORONTO, priority 2018, published 2022):

Tests used:
HEK293 GFP Parkin cells [1] = assay: High throughput small molecule screen for Parkin recruitment to mitochondria (high content imaging); assay type: cell-based; conditions: 4 μM, 16 h, then CCCP 2 h; rank out of 480; low rank = activator of Parkin recruitment, high rank = inhibitor
Protocol: 10 uL of 0.1 mg/mL Poly-D-Lys solution was added to 384-well plates for 5 minutes, followed by a PBS wash. Plates were dried for at least 2 hours. 50 μL of 600 000 HEK293 GFP Parkin cell/mL of DMEM was dispensed into each well. After 24 hours incubation to allow the cells to adhere, 200 nL of small molecules (or DMSO in columns 1, 2, 23 and 24) were pinned. Following a 16-hour incubation, 200 nL of 5 mM CCCP were added to all wells except columns 1 and 2, into which 200 nL of DMSO was added. Following 2-hour incubation, cells were fixed with 4% paraformaldehyde (PFA) and stained with 50 μL of 1 μg/mL DAPI solution for 15 minutes. After the final PBS wash, plates were ready for high content microscopy.
Images were acquired on IN Cell Analyzer 6000 (GE Healthcare), equipped with sCMOS camera (2048×2048), and 20x/0.45 NA Plan Fluor objective (Nikon) in open aperture mode using 1×1 binning. Image analysis was performed using Columbus Image Analysis System (PerkinElmer). Nuclei were initially detected in DAPI channel, followed by whole cell segmentation in GFP channel. Using PhenoLOGIC machine learning plug-in, cells were split into 2 sub-populations: cells with even GFP-Parkin distribution and cells where GFP-Parkin was localized to mitochondria. The percentage of cells with mitochondrial GFP-Parkin was determined per well. The molecules were then rank ordered based on z-score, which is calculated using the formula: […]
where x is the percentage of cells with mitochondrial GFP-Parkin for a specific small molecule, μ is the average percentage of cells with mitochondrial Parkin in positive control columns 23 and 24, where cells are treated with CCCP only.
These cell lines were screened across 2 biological replicates with compounds from the kinase inhibitor (n=480) and Prestwick (n=1120) collections. The 3-day screening protocol consisted of (1) seeding cells, (2) pinning small molecules at 4 μM concentration and (3) inducing mitophagy with CCCP, followed by processing of plates for high content imaging. Following image acquisition, DAPI staining was used to segment cells within each image. Supervised machine learning was used to classify cells into two classes: (1) cells with cytosolic Parkin distribution and (2) those with Parkin localized to mitochondria. […] Compounds which increased the proportion of class 2 cells across 2 biological replicates, compared to the CCCP-only treated cells (FIG. 10), as indicated by their z-score (FIG. 11), were considered hits.

HEK293 GFP Parkin cells [2] = assay: Parkin recruitment assay; assay type: cell-based
Protocol: HEK293 GFP Parkin cells were seeded into 12-well plates containing coverslips. Cells were treated with small molecules for 2 hours prior to mitophagy induction with 10 μM CCCP, unless indicated otherwise. Following fixation with 4% PFA, immunostaining was carried out using anti-ATP5A primary antibody and anti-mouse Alex Fluor 568.
To measure the percentage of cells with Parkin localized to mitochondria a 2 step process was employed: (1) whole cell segmentation based on GFP Parkin using CellProfiler software and (2) classification into Parkin distribution subpopulation using CellProfiler Analyst. The percentage of cells with Parkin localized to mitochondria was determined in each image. Images were taken at 20× magnification for this experiment, resulting in the classification of at least 300 cells in each treatment group per trial.

[3] = test system: heteroplasmic mt:Col^T300l flies; assay: Survival and climbing of heteroplasmic mt:CoI T300I flies; assay type: in vivo, Drosophila
Protocol: Finally, SR3677 in an alternate, genetic model of mitochondrial dysfunction was tested. Specifically, flies with a temperature-sensitive, de-stabilizing mutation in cytochrome c oxidase subunit I (mt:Col^T300l) were used. This mutation causes depolarization of the mitochondrial membrane potential and increased mitochondrial reactive oxygen species^44, manifesting in systemic consequences such as impaired climbing and survival. Flies with this mutation in 100% of their mitochondrial genomes, or homoplasmic flies, only survive 4 days post-eclosion. In order to extend our therapeutic window, SR3677 in heteroplasmic flies which contain this temperature-sensitive mutation in approximately 90% of their mtDNA instead^47 was tested. These flies retain the same phenotypes as homoplasmic flies, including reduced survival and climbing ability although to a less severe extent (FIG. 7).
Immediately following eclosion, male heteroplasmic mt:Col^T300l flies were transferred to vials containing either water, 1 or 2 mM SR3677. Newly eclosed Canton(S) male flies were placed into fresh vials and referenced as a control for these experiments and flies were raised at non-permissive 29° C. for these experiments. […]

CN(C)CCOc1cc(-c2cn[nH]c2)ccc1NC(=O)[C@@H]1COc2ccccc2O1 [SR3677]
rank in the kinase inhibitor library screen (rank order by z-score) (HEK293 GFP Parkin cells [1]): 71/480 | Parkin recruitment to damaged mitochondria (HEK293 GFP Parkin cells [2]; 0.5 μM, 17 hour and 2 hour pre-incubation, CCCP): increased Parkin recruitment to damaged mitochondria | EC50 (HEK293 GFP Parkin cells [2]; Homo sapiens, HEK293, 2 h pre-treatment, then 10 μM CCCP 1 h, read-out: EC50, percentage of cells with mitochondrial Parkin): 57 nM | Parkin distribution in the absence of CCCP (HEK293 GFP Parkin cells [2]; compound alone): diffuse | concentration at which the maximal effect on Parkin recruitment was achieved (HEK293 GFP Parkin cells [2]; dose series, CCCP): ≤ 0.5 µM | survival ([3]; 1 mM and 2 mM in fly food, 29° C.): equally improved | climbing ability ([3]; 2 mM in fly food, 7 days): improved
